Laboratory results reported in patent US20250101041A1, “POSITIVE ALLOSTERIC MODULATORS OF THE MUSCARINIC ACETYLCHOLINE RECEPTOR M4” (Vanderbilt University, priority 2022, published 2025).

Molecular target: T1, human mAChR M4 (Homo sapiens, UniProt P08173)
T1 construct: expressed in transfected cells; host or cells: CHO-K1 (American Type Culture Collection), stably expressing hM4 and Gqi5
T1 sequence (P08173 1-479): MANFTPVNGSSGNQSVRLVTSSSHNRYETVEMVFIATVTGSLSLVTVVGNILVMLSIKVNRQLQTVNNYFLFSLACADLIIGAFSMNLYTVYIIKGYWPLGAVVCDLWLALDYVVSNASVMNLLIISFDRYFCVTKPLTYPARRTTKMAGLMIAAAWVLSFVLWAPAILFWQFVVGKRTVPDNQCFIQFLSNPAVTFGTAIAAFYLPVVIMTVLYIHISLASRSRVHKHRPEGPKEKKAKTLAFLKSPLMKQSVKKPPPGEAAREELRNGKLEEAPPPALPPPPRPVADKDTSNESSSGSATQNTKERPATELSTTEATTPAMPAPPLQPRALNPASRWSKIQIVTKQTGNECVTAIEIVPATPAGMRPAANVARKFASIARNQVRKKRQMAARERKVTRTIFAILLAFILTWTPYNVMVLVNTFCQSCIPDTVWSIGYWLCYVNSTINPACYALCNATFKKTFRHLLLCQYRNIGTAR
Assay: mAChR M4 cell-based functional assay: calcium mobilization (Fluo-4, FDSS), potentiation of EC20 acetylcholine response in hM4-Gqi5 CHO-K1 cells
Details: human M4; for Emax at 30 µM: CHO-K1, % ACh maximum at 30 μM; for EC50: potentiation of EC20 acetylcholine response, calcium mobilization
Procedure, shortened: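 CHO-K1 cells stably co-expressing human M4 and chimeric Gqi5, loaded with Fluo-4 AM (50 min, 37 °C). Compounds in 11-point 1:3 series added first; EC20 acetylcholine added at 144 s and again at 230 s. Calcium read on FDSS at 1 Hz; EC50 and Emax from four-parameter logistic fit of potentiated EC20 response.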

Structure (SMILES) | Emax at 30 µM [%] | EC50 [nM]
Cc1cc(=O)n2nc(N3CCc4ncc(-c5ccccc5C)cc4C3)c(C)c(C)c2n1 [Compound 1-137, 2,8,9-trimethyl-7-(3-(o-tolyl)-7,8-dihydro-1,6-naphthyridin-6(5H)-yl)-4H-pyrimido[1,2-b]pyridazin-4-one] | 109 | 1730
Cc1c(N2CCc3ncc(-c4cncc(Cl)c4)cc3C2)nn2c(=O)ccnc2c1C [Compound 1-144, 7-(3-(5-chloropyridin-3-yl)-7,8-dihydro-1,6-naphthyridin-6(5H)-yl)-8,9-dimethyl-4H-pyrimido[1,2-b]pyridazin-4-one] | 82 | 246
Cc1cc2nccc(=O)n2nc1N1CCc2ncc(-c3cnn(C)c3)cc2C1 [Compound 1-6, 8-methyl-7-(3-(1-methyl-1H-pyrazol-4-yl)-7,8-dihydro-1,6-naphthyridin-6(5H)-yl)-4H-pyrimido[1,2-b]pyridazin-4-one] | 83 | 736
Cc1cc2nccc(=O)n2nc1N1CCc2ncc(-c3cccnc3F)cc2C1 [Compound 1-58, 7-(3-(2-fluoropyridin-3-yl)-7,8-dihydro-1,6-naphthyridin-6(5H)-yl)-8-methyl-4H-pyrimido[1,2-b]pyridazin-4-one] | 88 | 397
Cc1ccc(F)cc1-c1cnc2c(c1)CN(c1nn3c(=O)ccnc3c(C)c1C)CC2 [Compound 1-194, 7-(3-(5-fluoro-2-methylphenyl)-7,8-dihydro-1,6-naphthyridin-6(5H)-yl)-8,9-dimethyl-4H-pyrimido[1,2-b]pyridazin-4-one] | 83 | 93
Cc1cc(=O)n2nc(N3CCc4ncc(-c5cnn(-c6ccccc6F)c5)cc4C3)c(C)c(C)c2n1 [Compound 1-180, 7-(3-(1-(2-fluorophenyl)-1H-pyrazol-4-yl)-7,8-dihydro-1,6-naphthyridin-6(5H)-yl)-2,8,9-trimethyl-4H-pyrimido[1,2-b]pyridazin-4-one] | 63 | 2470
Cc1cncc(-c2cnc3c(c2)CN(c2nn4c(=O)cc(C(F)F)nc4c(C)c2C)CC3)c1 [Compound 1-119, 2-(difluoromethyl)-8,9-dimethyl-7-(3-(5-methylpyridin-3-yl)-7,8-dihydro-1,6-naphthyridin-6(5H)-yl)-4H-pyrimido[1,2-b]pyridazin-4-one] | 85 | 
Cc1cc(=O)n2nc(N3CCc4ncc(-c5ccc6nccn6c5)cc4C3)c(C)c(C)c2n1 [Compound 1-133, 7-(3-(imidazo[1,2-a]pyridin-6-yl)-7,8-dihydro-1,6-naphthyridin-6(5H)-yl)-2,8,9-trimethyl-4H-pyrimido[1,2-b]pyridazin-4-one] | 79 | 556
Cc1c(N2CCc3ncc(-c4cncc(Cl)c4)cc3C2)nn2c(=O)cc(C(F)F)nc2c1C [Compound 1-160, 7-(3-(5-chloropyridin-3-yl)-7,8-dihydro-1,6-naphthyridin-6(5H)-yl)-2-(difluoromethyl)-8,9-dimethyl-4H-pyrimido[1,2-b]pyridazin-4-one] | 82 | 547
Cc1cc(=O)n2nc(N3CCc4ncc(-c5cnn(CCN6CCOCC6)c5)cc4C3)c(C)c(C)c2n1 [Compound 1-178, 2,8,9-trimethyl-7-(3-(1-(2-morpholinoethyl)-1H-pyrazol-4-yl)-7,8-dihydro-1,6-naphthyridin-6(5H)-yl)-4H-pyrimido[1,2-b]pyridazin-4-one] | 74 | 2510
Cc1c(N2CCc3ncc(-c4ccc(Cl)nc4Cl)cc3C2)nn2c(=O)cc(C(F)F)nc2c1C [Compound 1-174, 7-(3-(2,6-dichloropyridin-3-yl)-7,8-dihydro-1,6-naphthyridin-6(5H)-yl)-2-(difluoromethyl)-8,9-dimethyl-4H-pyrimido[1,2-b]pyridazin-4-one] | 82 | 450
Cc1ccc(-c2cnc3c(c2)CN(c2nn4c(=O)c(C)cnc4cc2C)CC3)cn1 [Compound 1-86, 3,8-dimethyl-7-(3-(6-methylpyridin-3-yl)-7,8-dihydro-1,6-naphthyridin-6(5H)-yl)-4H-pyrimido[1,2-b]pyridazin-4-one] | 94 | 243
Cc1cc(=O)n2nc(N3CCc4ncc(-c5c(C)nn(C)c5C)cc4C3)c(C)cc2n1 [Compound 1-218, 2,8-dimethyl-7-(3-(1,3,5-trimethyl-1H-pyrazol-4-yl)-7,8-dihydro-1,6-naphthyridin-6(5H)-yl)-4H-pyrimido[1,2-b] pyridazin-4-one] | 92 | 793
CCc1cc(=O)n2nc(N3CCc4ncc(-c5ccc(C)nc5)cc4C3)c(C)c(C)c2n1 [Compound 1-106, 2-ethyl-8,9-dimethyl-7-(3-(6-methylpyridin-3-yl)-7,8-dihydro-1,6-naphthyridin-6(5H)-yl)-4H-pyrimido[1,2-b]pyridazin-4-one] | 104 | 108
Cc1c(N2CCc3ncc(-c4cncc(F)c4)cc3C2)nn2c(=O)cc(C(F)F)nc2c1C [Compound 1-156, 2-(difluoromethyl)-7-(3-(5-fluoropyridin-3-yl)-7,8-dihydro-1,6-naphthyridin-6(5H)-yl)-8,9-dimethyl-4H-pyrimido[1,2-b]pyridazin-4-one] | 95 | 204

The next lines start with the values.

Emax at 30 µM [%] | EC50 [nM] | Structure (SMILES)
82 | 374 | COCc1cc(=O)n2nc(N3CCc4ncc(-c5ccc(F)nc5)cc4C3)c(C)cc2n1 [Compound 1-322, 7-(3-(6-fluoropyridin-3-yl)-7,8-dihydro-1,6-naphthyridin-6(5H)-yl)-2-(methoxymethyl)-8-methyl-4H-pyrimido[1,2-b] pyridazin-4-one]
64 | 814 | COc1ccc(C2CN(c3cnc4c(c3)CN(c3nn5c(=O)ccnc5cc3C)CC4)CCO2)cc1 (centres unmarked) [Compound 2-95, 7-(3-(2-(4-methoxyphenyl)morpholino)-7,8-dihydro-1,6-naphthyridin-6(5H)-yl)-8-methyl-4H-pyrimido[1,2-b]pyridazin-4-one]
84 | 384 | Cc1cc2nccc(=O)n2nc1N1CCc2ncc(Nc3ccnn3C)cc2C1 [Compound 2-8, 8-methyl-7-(3-((1-methyl-1H-pyrazol-5-yl)amino)-7,8-dihydro-1,6-naphthyridin-6(5H)-yl)-4H-pyrimido[1,2-b]pyridazin-4-one]
41 | 1250 | Cc1cc2nccc(=O)n2nc1N1CCc2ncc(-c3ccccc3C(C)(F)F)cc2C1 [Compound 1-433, 7-(3-(2-(1,1-difluoroethyl)phenyl)-7,8-dihydro-1,6-naphthyridin-6(5H)-yl)-8-methyl-4H-pyrimido[1,2-b]pyridazin-4-one]
31 |  | Cc1nc(S(=O)(=O)Nc2cnc3c(c2)CN(c2nn4c(=O)ccnc4cc2C)CC3)cs1 [Compound 2-119, 2-methyl-N-(6-(8-methyl-4-oxo-4H-pyrimido[1,2-b]pyridazin-7-yl)-5,6,7,8-tetrahydro-1,6-naphthyridin-3-yl)thiazole-4-sulfonamide]
115 | 30 | Cc1cc2ncc(Cl)c(=O)n2nc1N1CCc2ncc(N3CCCn4nccc43)cc2C1 [Compound 2-4, 3-chloro-7-(3-(6,7-dihydropyrazolo[1,5-a]pyrimidin-4(5H)-yl)-7,8-dihydro-1,6-naphthyridin-6(5H)-yl)-8-methyl-4H-pyrimido[1,2-b]pyridazin-4-one]
70 | 4550 | Cc1cncc(-c2cnc3c(c2)CN(c2nn4c(=O)cc(C)nc4cc2C)CC3)c1 [Compound 1-289, 2,8-dimethyl-7-(3-(5-methylpyridin-3-yl)-7,8-dihydro-1,6-naphthyridin-6(5H)-yl)-4H-pyrimido[1,2-b] pyridazin-4-one]
56 | 985 | COc1ccnc(Nc2cnc3c(c2)CN(c2nn4c(=O)ccnc4cc2C)CC3)n1 [Compound 2-140, 7-(3-((4-methoxypyrimidin-2-yl)amino)-7,8-dihydro-1,6-naphthyridin-6(5H)-yl)-8-methyl-4H-pyrimido[1,2-b]pyridazin-4-one]
22 | 1230 | Cc1cc2nccc(=O)n2nc1N1CCc2ncc(-c3ccccc3C(C)C)cc2C1 [Compound 1-439, 7-(3-(2-isopropylphenyl)-7,8-dihydro-1,6-naphthyridin-6(5H)-yl)-8-methyl-4H-pyrimido [1,2-b]pyridazin-4-one]
87 | 1000 | CCc1ccccc1-c1cnc2c(c1)CN(c1nn3c(=O)cc(C)nc3c(C)c1C)CC2 [Compound 1-249, 7-(3-(2-ethylphenyl)-7,8-dihydro-1,6-naphthyridin-6(5H)-yl)-2,8,9-trimethyl-4H-pyrimido[1,2-b]pyridazin-4-one]
79 | 612 | Cc1cc(=O)n2nc(N3CCc4ncc(-c5cc(F)nc(F)c5)cc4C3)c(C)cc2n1 [Compound 1-242, 7-(3-(2,6-difluoropyridin-4-yl)-7,8-dihydro-1,6-naphthyridin-6(5H)-yl)-2,8-dimethyl-4H-pyrimido[1,2-b]pyridazin-4-one]
